Reference: ChEMBL document CHEMBL1909046, “DrugMatrix in vitro pharmacology data”

What was measured:
[1] = target: T1, Muscarinic acetylcholine receptor M2 (Homo sapiens, UniProt P08172); format: cell membranes, CHO-K1, Membrane; note: in other assays of this panel Not Active means under 50% inhibition at 10 µM
T1 sequence (P08172 whole entry): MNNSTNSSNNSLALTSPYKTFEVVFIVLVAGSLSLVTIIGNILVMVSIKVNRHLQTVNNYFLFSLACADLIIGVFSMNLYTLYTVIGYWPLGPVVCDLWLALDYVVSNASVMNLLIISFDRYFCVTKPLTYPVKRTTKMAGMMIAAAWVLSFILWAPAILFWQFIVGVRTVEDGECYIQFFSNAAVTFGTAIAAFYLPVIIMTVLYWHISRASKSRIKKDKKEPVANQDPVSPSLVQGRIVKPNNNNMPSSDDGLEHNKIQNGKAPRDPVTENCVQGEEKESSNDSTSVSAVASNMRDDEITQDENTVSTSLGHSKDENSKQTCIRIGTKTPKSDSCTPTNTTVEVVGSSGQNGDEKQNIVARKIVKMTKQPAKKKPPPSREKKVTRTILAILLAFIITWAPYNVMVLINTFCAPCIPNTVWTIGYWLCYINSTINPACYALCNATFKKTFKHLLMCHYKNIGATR

[2] = target: Delta-type opioid receptor (Homo sapiens, UniProt P41143); format: cell membranes, HEK293, Membrane; conditions: hek293; note: in other assays of this panel Not Active means under 50% inhibition at 10 µM
Delta-type opioid receptor, sequence (P41143 whole entry): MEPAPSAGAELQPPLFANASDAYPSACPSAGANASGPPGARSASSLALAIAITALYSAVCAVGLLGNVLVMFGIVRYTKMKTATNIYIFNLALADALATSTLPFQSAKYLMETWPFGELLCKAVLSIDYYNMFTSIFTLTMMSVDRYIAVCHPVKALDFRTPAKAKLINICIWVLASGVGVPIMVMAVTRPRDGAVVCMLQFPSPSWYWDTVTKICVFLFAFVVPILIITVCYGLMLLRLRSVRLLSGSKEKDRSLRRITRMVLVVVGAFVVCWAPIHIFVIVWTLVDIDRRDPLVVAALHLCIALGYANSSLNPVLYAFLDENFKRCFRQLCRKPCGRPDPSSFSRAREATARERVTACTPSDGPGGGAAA

Progesterone receptor = target: T2, Progesterone receptor (Bos taurus, UniProt Q690N0); experiment: DRUGMATRIX: Progesterone radioligand binding (ligand: [3H] R-5020); format: tissue-based, Uterus; conditions: Not Active = under 50% inhibition at 10 µM; for Ki: read-out: Ki
T2 sequence (Q690N0 whole entry): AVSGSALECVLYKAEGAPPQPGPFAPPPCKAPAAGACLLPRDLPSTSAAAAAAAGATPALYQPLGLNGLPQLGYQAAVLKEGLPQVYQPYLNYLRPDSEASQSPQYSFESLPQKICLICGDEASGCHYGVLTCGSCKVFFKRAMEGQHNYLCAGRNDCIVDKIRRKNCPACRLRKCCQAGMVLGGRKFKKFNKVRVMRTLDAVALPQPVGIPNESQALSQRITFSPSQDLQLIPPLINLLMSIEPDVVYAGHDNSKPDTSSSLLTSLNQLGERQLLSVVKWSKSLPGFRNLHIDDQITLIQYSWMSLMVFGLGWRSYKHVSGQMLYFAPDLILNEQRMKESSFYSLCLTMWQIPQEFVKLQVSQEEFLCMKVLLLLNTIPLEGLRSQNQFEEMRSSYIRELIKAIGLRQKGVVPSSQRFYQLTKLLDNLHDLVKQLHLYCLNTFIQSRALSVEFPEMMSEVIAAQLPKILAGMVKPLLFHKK

[3] = target: Protein kinase C alpha type (Homo sapiens, UniProt P17252); format: cell-based; conditions: sf9;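 note: inhibition of PKCalpha kinase activity measured in an enzyme assay with histone as the phosphorylation substrate; in other assays of this panel Not Active means under 50% inhibition at 10 µM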
[4] = target: Epidermal growth factor receptor (Homo sapiens, UniProt P00533); experiment: DRUGMATRIX: Protein Tyrosine Kinase, EGF Receptor enzyme inhibition (substrate: Poly(Glu:Tyr)); format: cell-based, Insect cells; conditions: Not Active = under 50% inhibition at 10 µM
Epidermal growth factor receptor, sequence (P00533 whole entry): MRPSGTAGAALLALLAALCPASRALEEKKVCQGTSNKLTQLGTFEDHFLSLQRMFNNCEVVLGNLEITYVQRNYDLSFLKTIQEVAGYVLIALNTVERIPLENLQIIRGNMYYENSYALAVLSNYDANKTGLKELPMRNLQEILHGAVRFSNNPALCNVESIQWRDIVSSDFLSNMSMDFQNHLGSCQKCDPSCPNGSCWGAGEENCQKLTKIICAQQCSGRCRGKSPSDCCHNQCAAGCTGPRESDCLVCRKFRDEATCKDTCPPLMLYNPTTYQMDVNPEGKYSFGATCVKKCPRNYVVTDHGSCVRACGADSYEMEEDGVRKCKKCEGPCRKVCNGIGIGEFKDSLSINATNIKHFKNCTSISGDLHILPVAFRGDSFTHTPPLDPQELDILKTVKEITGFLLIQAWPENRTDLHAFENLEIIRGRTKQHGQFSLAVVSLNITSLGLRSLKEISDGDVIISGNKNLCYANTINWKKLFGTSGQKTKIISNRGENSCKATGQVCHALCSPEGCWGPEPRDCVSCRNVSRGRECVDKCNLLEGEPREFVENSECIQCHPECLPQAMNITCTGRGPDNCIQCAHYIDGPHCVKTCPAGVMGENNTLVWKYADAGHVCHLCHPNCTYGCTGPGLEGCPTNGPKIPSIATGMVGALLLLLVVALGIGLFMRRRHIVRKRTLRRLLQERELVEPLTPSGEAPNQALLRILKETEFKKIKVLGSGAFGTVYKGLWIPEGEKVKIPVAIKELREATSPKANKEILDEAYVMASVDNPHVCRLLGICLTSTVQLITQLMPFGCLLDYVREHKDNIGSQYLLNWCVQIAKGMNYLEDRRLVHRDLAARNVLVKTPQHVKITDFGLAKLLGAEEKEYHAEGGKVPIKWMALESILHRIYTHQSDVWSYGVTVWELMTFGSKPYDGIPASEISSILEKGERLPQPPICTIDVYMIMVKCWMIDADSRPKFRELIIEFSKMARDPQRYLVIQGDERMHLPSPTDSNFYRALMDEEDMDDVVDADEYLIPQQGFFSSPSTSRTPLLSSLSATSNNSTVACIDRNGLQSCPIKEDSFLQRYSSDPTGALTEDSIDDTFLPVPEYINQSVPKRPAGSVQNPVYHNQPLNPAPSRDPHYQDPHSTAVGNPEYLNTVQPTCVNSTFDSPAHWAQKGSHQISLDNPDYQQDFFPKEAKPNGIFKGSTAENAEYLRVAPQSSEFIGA

Cytochrome P450 2C19 = Cytochrome P450 2C19 (Homo sapiens, UniProt P33261); conditions: bti-tn-5b1-4; note: in other assays of this panel Not Active means under 50% inhibition at 10 µM
Cytochrome P450 2C19, sequence (P33261 whole entry): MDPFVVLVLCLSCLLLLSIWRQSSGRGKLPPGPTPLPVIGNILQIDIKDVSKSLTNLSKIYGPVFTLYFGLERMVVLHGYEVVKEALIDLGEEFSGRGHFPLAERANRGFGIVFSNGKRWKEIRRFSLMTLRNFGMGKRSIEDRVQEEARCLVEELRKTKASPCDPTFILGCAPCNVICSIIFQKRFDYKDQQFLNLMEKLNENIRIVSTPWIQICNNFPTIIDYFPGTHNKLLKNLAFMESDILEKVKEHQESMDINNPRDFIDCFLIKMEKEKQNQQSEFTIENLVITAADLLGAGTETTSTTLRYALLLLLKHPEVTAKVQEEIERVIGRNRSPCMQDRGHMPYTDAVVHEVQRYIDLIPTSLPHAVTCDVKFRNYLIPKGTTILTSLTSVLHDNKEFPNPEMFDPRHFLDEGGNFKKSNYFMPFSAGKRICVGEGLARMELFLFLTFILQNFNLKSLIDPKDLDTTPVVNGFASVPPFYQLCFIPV

SMILES | IC50 ([1]; cho-k1) | IC50 [2] | IC50 (Progesterone receptor) | IC50 [3] | IC50 ([4]; insect cells) | IC50 (Cytochrome P450 2C19) | Ki (Cytochrome P450 2C19) | IC50 (Progesterone receptor; read-out: IC50) | Ki (Progesterone receptor) | IC50 ([1]; read-out: IC50) | Ki ([1]; read-out: Ki) | IC50 ([4]; read-out: IC50)
O=C(O)Cc1ccccc1Nc1c(Cl)cccc1Cl [DICLOFENAC] | Not Active | Not Active | Not Active | Not Active | Not Active | Not Active | Not Active |  |  |  |  | 
C[C@H]1O[C@@H](O[C@H]2[C@@H](O)C[C@H](O[C@H]3[C@@H](O)C[C@H](O[C@H]4CC[C@@]5(C)[C@H](CC[C@@H]6[C@@H]5CC[C@]5(C)[C@@H](C7=CC(=O)OC7)CC[C@]65O)C4)O[C@@H]3C)O[C@@H]2C)C[C@H](O)[C@@H]1O [DIGITOXIN] | Not Active | Not Active | Not Active | Not Active | Not Active | Not Active | Not Active |  |  |  |  | 
CCN1CC(CCN2CCOCC2)C(c2ccccc2)(c2ccccc2)C1=O (centres undefined) [DOXAPRAM] | Not Active | Not Active | Not Active | Not Active | Not Active | Not Active | Not Active |  |  |  |  | 
Cn1c(=O)c2c(ncn2CC2OCCO2)n(C)c1=O [DOXOFYLLINE] | Not Active | Not Active | Not Active | Not Active | Not Active | Not Active | Not Active |  |  |  |  | 
COc1cccc2c1C(=O)c1c(O)c3c(c(O)c1C2=O)C[C@@](O)(C(=O)CO)C[C@@H]3O[C@H]1C[C@H](N)[C@H](O)[C@H](C)O1 [DOXORUBICIN] | Not Active | Not Active | Not Active | Not Active | Not Active | Not Active | Not Active |  |  |  |  | 
COc1cccc2c1C(=O)c1c(O)c3c(c(O)c1C2=O)C[C@@](O)(C(=O)CO)C[C@@H]3O[C@H]1C[C@H](N)[C@@H](O)[C@H](C)O1 [EPIRUBICIN] | Not Active | Not Active | Not Active | Not Active | Not Active | Not Active | Not Active |  |  |  |  | 
C[C@]12CC[C@@H]3c4ccc(OC(=O)c5ccccc5)cc4CC[C@H]3[C@@H]1CC[C@@H]2O [ESTRADIOL BENZOATE] | Not Active | Not Active |  | Not Active | Not Active | Not Active | Not Active | 9610 nM | 1250 nM |  |  | 
C[C@]12CC[C@@H]3c4ccc(O)cc4CC[C@H]3[C@@H]1CC[C@@H]2O [ESTRADIOL] | Not Active | Not Active |  | Not Active | Not Active | Not Active | Not Active | 32600 nM | 4250 nM |  |  | 
CC[C@@H](CO)NCCN[C@@H](CC)CO [ETHAMBUTOL] | Not Active | Not Active | Not Active | Not Active | Not Active | Not Active | Not Active |  |  |  |  | 
CC1(C)O[C@@H]2C[C@H]3[C@@H]4C[C@H](F)C5=CC(=O)C=C[C@]5(C)[C@H]4[C@@H](O)C[C@]3(C)[C@]2(C(=O)CO)O1 [FLUNISOLIDE] | Not Active | Not Active |  | Not Active | Not Active | Not Active | Not Active | 359 nM | 47 nM |  |  | 
CC1(C)O[C@@H]2C[C@H]3[C@@H]4C[C@H](F)C5=CC(=O)C=C[C@]5(C)[C@@]4(F)[C@@H](O)C[C@]3(C)[C@]2(C(=O)CO)O1 [FLUOCINOLONE ACETONIDE] | Not Active | Not Active |  | Not Active | Not Active | Not Active | Not Active | 26 nM | 3.35 nM |  |  | 
CC1(C)O[C@@H]2C[C@H]3[C@@H]4C[C@H](F)C5=CC(=O)CC[C@]5(C)[C@H]4[C@@H](O)C[C@]3(C)[C@]2(C(=O)CO)O1 [FLURANDRENOLIDE] | Not Active | Not Active |  | Not Active | Not Active | Not Active | Not Active | 172 nM | 22 nM |  |  | 
CN(C)c1ccc(C(=C2C=CC(=[N+](C)C)C=C2)c2ccc(N(C)C)cc2)cc1.[Cl-] [GENTIAN VIOLET] |  | Not Active | Not Active | Not Active |  | Not Active | Not Active |  |  | 1430 nM | 508 nM | 473 nM
Cc1ccc(S(=O)(=O)NC(=O)NN2CC3CCCC3C2)cc1 (centres undefined) [GLICLAZIDE] | Not Active | Not Active | Not Active | Not Active | Not Active | Not Active | Not Active |  |  |  |  | 
